From patent US11357779B2 (G1 Therapeutics, Inc., priority 2018, dated 2022)
Read-outs that look alike come from different tables or passages of the source.

Assay: Plasma concentration versus time of Compound I and metabolite Compound III in patients dosed QD or BID with Form B of Compound II plus fulvestrant
Type: in vivo, human
Conditions: human, plasma, oral; for concentration at 22 day: Day 22; for concentration at 24 h: Day 1, […]
Excerpt: Patients were enrolled into 1 of 2 parallel, independently operating, dose-escalation dosing cohorts with Form B of Compound II administered continuously either once daily (QD) or twice daily (BID) with food with fixed-dose fulvestrant (intramuscularly every 14 days for the first three injections and then every 28 days). Pre- or perimenopausal patients also received goserelin for the duration of study treatment. A […] agonist was started at least 28 days before the first dose of Form B, and those patients who were taking another LHRH agonist were switched to goserelin on Day 1. Patients were split into […] cohorts providing once a day (QD) dosing of 200 mg, 300 mg, 400 mg, 500 mg, or 650 mg of Form B, or twice a day (BID) dosing of 100 mg, 150 mg, or 200 mg of Form B. The second dose in BID cohorts was not administered in the evening until at least 12 hours after the initial morning dose of Form B. The dosing cohorts for Form B of Compound II are provided in Table 1.
Blood samples were collected at the following time points relative to the morning dose of Form B at Day 1 and at Day 29: pre-dose (0 hour) and 1, 2, 3, 4, 6, 8, 10, 12 (prior to the evening dose in the BID cohorts), and 24 (prior to the next day's morning dose) hours after dosing. A 5-minute time window was allowed for samples collected between the predose and 3 hours after Form B dosing. A 15-minute window was allowed for samples collected between 4 to 12 hours after Form B dosing. A 1-hour window was allowed for the sample collected 24 hours after Form B dosing. Blood samples for Compound I PK trough levels were collected pre-dose at Day 8, Day 15, and Day 22 prior to the morning administration of Compound I. Plasma concentrations of Compound I and its metabolite, Compound III, were measured using validated methods.
Analysis of plasma concentration versus time data for calculation of standard pharmacokinetic (PK) parameters following oral administration was conducted using Phoenix WinNonlin version 6.3 using actual blood sampling times.

Work on `CC(C)N1CCN(c2ccc(Nc3ncc4cc5n(c4n3)C3(CCCCC3)CNC5=O)nc2)CC1` [Compound I, 2′-((5-(4-isopropylpiperazin-1-yl)pyridin-2-yl)amino)-7′,8′-dihydro-6′H-spiro[cyclohexane-1,9′-pyrazino[1′,2′:1,5]pyrrolo[2,3-d]pyrimidin]-6′-one] yielded a concentration at 15 day (150 mg, Cohort 7, 150 mg BID of Form B, Day 15, read-out: Trough Compound I Concentration, Min) of 15.5 ng/mL, a concentration at 22 day (150 mg, Cohort 7, 150 mg BID of Form B, read-out: Trough Compound I Concentration, Max) of 30.5 ng/mL and a concentration at 22 day (150 mg, Cohort 7, 150 mg BID of Form B, read-out: Trough Compound I Concentration, Median) of 15.9 ng/mL. The concentration at 22 day (150 mg, Cohort 7, 150 mg BID of Form B, read-out: Trough Compound I Concentration, Min) was 15.5 ng/mL, the concentration at 0 h (150 mg, Cohort 7, 150 mg BID of Form B, Day 29, 0.0 h, read-out: Compound I Concentration, Max) was 51.1 ng/mL and the concentration at 0 h (150 mg, Cohort 7, 150 mg BID of Form B, Day 29, 0.0 h, read-out: Compound I Concentration, Median) was 18.5 ng/mL. The concentration at 1 h (150 mg, Cohort 7, 150 mg BID of Form B, Day 29, 1.0 h, read-out: Compound I Concentration, Median) was 28.7 ng/mL, the concentration at 2 h (150 mg, Cohort 7, 150 mg BID of Form B, Day 29, 2.0 h, read-out: Compound I Concentration, Median) was 34.3 ng/mL and the concentration at 3 h (150 mg, Cohort 7, 150 mg BID of Form B, Day 29, 3.0 h, read-out: Compound I Concentration, Median) was 35.6 ng/mL. The concentration at 4 h (150 mg, Cohort 7, 150 mg BID of Form B, Day 29, 4.0 h, read-out: Compound I Concentration, Median) was 36.9 ng/mL, the concentration at 6 h (150 mg, Cohort 7, 150 mg BID of Form B, Day 29, 6.0 h, read-out: Compound I Concentration, Median) was 26.5 ng/mL and the concentration at 8 h (150 mg, Cohort 7, 150 mg BID of Form B, Day 29, 8.0 h, read-out: Compound I Concentration, Median) was 26.9 ng/mL. For the same compound, the concentration at 10 h (150 mg, Cohort 7, 150 mg BID of Form B, Day 29, 10.0 h, read-out: Compound I Concentration, Median) was 23.8 ng/mL, the concentration at 12 h (150 mg, Cohort 7, 150 mg BID of Form B, Day 29, 12.0 h, read-out: Compound I Concentration, Median) was 17.3 ng/mL and the concentration at 0 h (200 mg, 200 mg BID of Form B, Day 1, 0.0 h, Mean, read-out: Compound I Concentration) was 0 ng/mL. The concentration at 0 h (200 mg, 200 mg BID of Form B, Day 1, 0.0 h, Median, read-out: Compound I Concentration) was 0 ng/mL, the concentration at 1 h (200 mg, 200 mg BID of Form B, Day 1, 1.0 h, Mean, read-out: Compound I Concentration) was 5.79 ng/mL and the concentration at 1 h (200 mg, 200 mg BID of Form B, Day 1, 1.0 h, Median, read-out: Compound I Concentration) was 6.13 ng/mL. The concentration at 2 h (200 mg, 200 mg BID of Form B, Day 1, 2.0 h, Mean, read-out: Compound I Concentration) was 9.42 ng/mL, the concentration at 2 h (200 mg, 200 mg BID of Form B, Day 1, 2.0 h, Median, read-out: Compound I Concentration) was 11.8 ng/mL and the concentration at 3 h (200 mg, 200 mg BID of Form B, Day 1, 3.0 h, Mean, read-out: Compound I Concentration) was 12.8 ng/mL. It also gave a concentration at 3 h (200 mg, 200 mg BID of Form B, Day 1, 3.0 h, Median, read-out: Compound I Concentration) of 14.8 ng/mL, a concentration at 4 h (200 mg, 200 mg BID of Form B, Day 1, 4.0 h, Mean, read-out: Compound I Concentration) of 15.5 ng/mL and a concentration at 4 h (200 mg, 200 mg BID of Form B, Day 1, 4.0 h, Median, read-out: Compound I Concentration) of 14.9 ng/mL. For the same compound, the concentration at 6 h (200 mg, 200 mg BID of Form B, Day 1, 6.0 h, Mean, read-out: Compound I Concentration) was 15.5 ng/mL, the concentration at 6 h (200 mg, 200 mg BID of Form B, Day 1, 6.0 h, Median, read-out: Compound I Concentration) was 17.1 ng/mL and the concentration at 8 h (200 mg, 200 mg BID of Form B, Day 1, 8.0 h, Mean, read-out: Compound I Concentration) was 8.94 ng/mL. The concentration at 8 h (200 mg, 200 mg BID of Form B, Day 1, 8.0 h, Median, read-out: Compound I Concentration) was 9.13 ng/mL, the concentration at 10 h (200 mg, 200 mg BID of Form B, Day 1, 10.0 h, Mean, read-out: Compound I Concentration) was 6.61 ng/mL and the concentration at 10 h (200 mg, 200 mg BID of Form B, Day 1, 10.0 h, Median, read-out: Compound I Concentration) was 6.33 ng/mL. The concentration at 12 h (200 mg, 200 mg BID of Form B, Day 1, 12.0 h, Mean, read-out: Compound I Concentration) was 5.64 ng/mL, the concentration at 12 h (200 mg, 200 mg BID of Form B, Day 1, 12.0 h, Median, read-out: Compound I Concentration) was 4.89 ng/mL and the concentration at 0 h (200 mg, 200 mg QD of Form B, Day 1, 0.0 h, Mean, read-out: Compound I Concentration) was 0 ng/mL. It also gave a concentration at 0 h (200 mg, 200 mg QD of Form B, Day 1, 0.0 h, Median, read-out: Compound I Concentration) of 0 ng/mL, a concentration at 1 h (200 mg, 200 mg QD of Form B, Day 1, 1.0 h, Mean, read-out: Compound I Concentration) of 8.42 ng/mL and a concentration at 1 h (200 mg, 200 mg QD of Form B, Day 1, 1.0 h, Median, read-out: Compound I Concentration) of 3.65 ng/mL. It also gave a concentration at 2 h (200 mg, 200 mg QD of Form B, Day 1, 2.0 h, Mean, read-out: Compound I Concentration) of 13.6 ng/mL, a concentration at 2 h (200 mg, 200 mg QD of Form B, Day 1, 2.0 h, Median, read-out: Compound I Concentration) of 12.3 ng/mL and a concentration at 3 h (200 mg, 200 mg QD of Form B, Day 1, 3.0 h, Mean, read-out: Compound I Concentration) of 20.2 ng/mL. It also gave a concentration at 3 h (200 mg, 200 mg QD of Form B, Day 1, 3.0 h, Median, read-out: Compound I Concentration) of 18.1 ng/mL, a concentration at 4 h (200 mg, 200 mg QD of Form B, Day 1, 4.0 h, Mean, read-out: Compound I Concentration) of 25 ng/mL and a concentration at 4 h (200 mg, 200 mg QD of Form B, Day 1, 4.0 h, Median, read-out: Compound I Concentration) of 27 ng/mL. For the same compound, the concentration at 6 h (200 mg, 200 mg QD of Form B, Day 1, 6.0 h, Mean, read-out: Compound I Concentration) was 16.8 ng/mL, the concentration at 6 h (200 mg, 200 mg QD of Form B, Day 1, 6.0 h, Median, read-out: Compound I Concentration) was 17.7 ng/mL and the concentration at 8 h (200 mg, 200 mg QD of Form B, Day 1, 8.0 h, Mean, read-out: Compound I Concentration) was 11.6 ng/mL. It also gave a concentration at 8 h (200 mg, 200 mg QD of Form B, Day 1, 8.0 h, Median, read-out: Compound I Concentration) of 12.2 ng/mL, a concentration at 10 h (200 mg, 200 mg QD of Form B, Day 1, 10.0 h, Mean, read-out: Compound I Concentration) of 8.28 ng/mL and a concentration at 10 h (200 mg, 200 mg QD of Form B, Day 1, 10.0 h, Median, read-out: Compound I Concentration) of 9.13 ng/mL. It also gave a concentration at 12 h (200 mg, 200 mg QD of Form B, Day 1, 12.0 h, Mean, read-out: Compound I Concentration) of 6.29 ng/mL, a concentration at 12 h (200 mg, 200 mg QD of Form B, Day 1, 12.0 h, Median, read-out: Compound I Concentration) of 6.43 ng/mL and a concentration at 24 h (200 mg, 200 mg QD of Form B, Mean, read-out: Compound I Concentration) of 3.61 ng/mL. It also gave a concentration at 24 h (200 mg, 200 mg QD of Form B, Median, read-out: Compound I Concentration) of 3.24 ng/mL, a concentration at 0 h (200 mg, 200 mg QD of Form B, Day 29, 0.0 h, Mean, read-out: Compound I Concentration) of 4.05 ng/mL and a concentration at 0 h (200 mg, 200 mg QD of Form B, Day 29, 0.0 h, Median, read-out: Compound I Concentration) of 4.1 ng/mL. The concentration at 1 h (200 mg, 200 mg QD of Form B, Day 29, 1.0 h, Mean, read-out: Compound I Concentration) was 5.12 ng/mL, the concentration at 1 h (200 mg, 200 mg QD of Form B, Day 29, 1.0 h, Median, read-out: Compound I Concentration) was 5.35 ng/mL and the concentration at 2 h (200 mg, 200 mg QD of Form B, Day 29, 2.0 h, Mean, read-out: Compound I Concentration) was 6.92 ng/mL. The concentration at 2 h (200 mg, 200 mg QD of Form B, Day 29, 2.0 h, Median, read-out: Compound I Concentration) was 7.27 ng/mL and the concentration at 3 h (200 mg, 200 mg QD of Form B, Day 29, 3.0 h, Mean, read-out: Compound I Concentration) was 12.5 ng/mL.
